Data taken from PMC3319558, “Functional Correlates of Positional and Gender-Specific Renal Asymmetry in Drosophila” (PLoS ONE, 2012).
“Also recorded” adds a separate entry of the source. Ends that are not written are not given here. Peptide text beside a SMILES is read from it.

What was measured:
female tubules = assay: Tubule fluid secretion assay; set-up: species or system Drosophila melanogaster; conditions: sNPF 10^−7 M added at 30 min, average rates before vs after addition
Protocol: (§1) Classical fluid secretion assays were performed as previously described by Dow et al.. Briefly, basal fluid secretion rates of the dissected live tubules were established for 30 min after which the required concentrations of peptides were added and secretion was measured for a further 70 min. The rates of secretion (in nl/min) were represented as the mean (±SEM) of approximately 30–35 tubules coming from 3 independent biological replicates.
(§2) sNPF (AQRSPSLRLRF-NH2) and MIP (AWQSLQSSW-NH2) peptides were synthesised by Biomatik, USA with a purity of greater than 98%. NPF ([…]-NH2) peptide was a kind gift from Professor Ian Orchard (University of Toronto Mississauga). According to the peptide profiles generated by peptide profile calculator (Gene Script, UK), they were dissolved first in water to produce a stock solution of 10 mM and subsequently diluted in the Schneider’s medium to get required final concentrations.

male tubules = assay: Tubule fluid secretion assay; set-up: species or system Drosophila melanogaster; conditions: sNPF 10^−7 M added at 30 min, average rates before vs after addition, *** Student's t-test, two tailed, P<0.05, N = 10 tubules (typical trace)
Protocol: as §1, §2

male Malpighian tubules = conditions: 3 h
Protocol: Cytosolic [Ca^2+]cyto or peroxisomal [Ca^2+]perox calcium was measured in tubules expressing transgenic aequorin according to published protocols [88], [89]. Briefly, the tubules were dissected, incubated at room temperature with 2.5 µM coelenterazine to reconstitute aequorin for 3 h. Calcium-dependent aequorin luminescence was measured in 10 biological replicates each containing 20-pairs of tubules. At the end of each experiment, total aequorin was released using 300 µl of lysis buffer (1% (v/v) Triton X-100, 100 mM CaCl2) in order to calculate the total luminescence; and the data were back-integrated using a program written in Perl, based on the method described by Button and Eidsath [90]. Data are presented as the mean (±SEM) and statistical significance was calculated using unpaired t-test.

right and left tubules = conditions: right v. left tubules; chloride conductance under control of leucokinin through intracellular calcium; ref [48], [49]; cited from earlier work
Excerpt: Bestrophin 2 encodes (of four Drosophila bestrophins) the most closely related to human bestrophin 1, a calcium- and volume-activated chloride channel of retinal pigmented epithelial cells, which is mutated in Best’s macular dystrophy, [44]. However, Bestrophins play wider roles: they are implicated in epithelial-to-mesenchymal transitions in human kidney, and in olfactory transduction. In Drosophila, Best1 also mediates a calcium and volume activated chloride current. FlyAtlas reports that, although expressed in eye, Best2 is abundant in epithelia; in adult tubul ...

Drosophila SPR = conditions: more sensitive to MIP than to SP itself; ref [59]; cited from earlier work
Excerpt: (§3) Intriguingly, two well-known receptors (for sex peptide and neuropeptide F) are prominently male-enriched (Supporting information S1). Their spatial expression patterns are presented along with their peptide ligands in Supporting information S1. Sex peptide receptor (SPR) is 6.6x male-enriched.

female = conditions: transferred with the sperm to the female; ref [58]; cited from earlier work
Excerpt: as §3

For “AQRSPSLRLRF-NH2 [sNPF, short neuropeptide F, distantly related peptide, the so called short neuropeptide F; synthesised by Biomatik]”, the Resting fluid secretion (female tubules) was “not female; also recorded: only of male tubules” and the Resting fluid secretion (male tubules) was “inhibits fluid secretion in male; also recorded: inhibits resting fluid secretion”.
Compound `CSCC[C@H](NC(=O)[C@@H](NC(=O)[C@H](CC(N)=O)NC(=O)[C@@H](NC(=O)[C@H](CC(=O)O)NC(=O)[C@H](CC(N)=O)NC(=O)[C@H](CCCCN)NC(=O)[C@H](CCCNC(=N)N)NC(=O)[C@@H]1CCCN1C(=O)[C@@H]1CCCN1C(=O)[C@H](CCCNC(=N)N)NC(=O)[C@H](CO)NC(=O)[C@H](CC(N)=O)NC(=O)[C@@H](N)CO)C(C)C)[C@@H](C)O)C(=O)N[C@@H](C)C(=O)N[C@@H](CC(=O)O)C(=O)N[C@@H](C)C(=O)N[C@@H](Cc1ccc(O)cc1)C(=O)N[C@@H](CCCCN)C(=O)N[C@@H](Cc1ccccc1)C(=O)N[C@@H](CC(C)C)C(=O)N[C@@H](CCC(N)=O)C(=O)N[C@@H](CC(=O)O)C(=O)N[C@@H](CC(C)C)C(=O)N[C@@H](CC(=O)O)C(=O)N[C@H](C(=O)N[C@@H](Cc1ccc(O)cc1)C(=O)N[C@@H](Cc1ccc(O)cc1)C(=O)NCC(=O)N[C@@H](CC(=O)O)C(=O)N[C@@H](CCCNC(=N)N)C(=O)N[C@@H](C)C(=O)N[C@@H](CCCNC(=N)N)C(=O)N[C@H](C(=O)N[C@@H](CCCNC(=N)N)C(=O)N[C@@H](Cc1ccccc1)C(N)=O)C(C)C)[C@@H](C)O` [NPF, neuropeptide F] (H-SNSRPPRKNDVNTMADAYKFLQDLDTYYGDRARVRF-NH2) has an EC50 (male Malpighian tubules) of 6 nM.
In the case of “leucokinin: diuretic neuropeptide leucokinin, which acts through intracellular calcium (NSVVLGKKQRFHSWG; ends and bridges not checked; UniProt P81829 133-147, looked up)”, the “Action on right and left tubules” value (right and left tubules) is listed as “acts equally on both right and left tubules”.
For “AWQSLQSSW-NH2 [allatostatin-B, the Drosophila MIP, allatostatin-B]”, the “Sensitivity of Drosophila SPR relative to SP” value (Drosophila SPR) is given as 10 x.
In the case of “Sex peptide: transferred with the sperm to the female (WEWPWNRKPTKFPIPSPNPRDKWCRLNLGPAWGGRC; ends and bridges not checked; cysteine pairing not given here; UniProt P05623 20-55, looked up)”, the “Change in female physiology and behaviour” value (female) is listed as “a reduction in receptivity to subsequent matings”.
